Values belong to the compound of their own block, whether it stands above or below them. Square brackets hold non-standard residues; d marks the D form. Ends that are not written are not given here. * marks the point of attachment. Nle = CCCC[C@H](N)C(=O)O; For = O=C*
Key:
MEG-01 cells = assay: RT-PCR of FPR and FPRL-1 in MEG-01 cells; assay type: cell-based, human; conditions: 10^−7 M PMA for 5 days
Description: To further confirm that platelets express human N-formyl peptide receptors (FPR), RT-PCR of RNA harvested from the megakaryocytic cell line MEG-01 was performed. […] Treatment of MEG-01 cells with phorbol 12-myristate 13-acetate (PMA) induced differentiation with production of platelet-like structures^36. RNA harvested from HL60 cells, a promyelocytic cell line that expresses both FPR and FPRL 1, is shown in lane 1 (RT included), lane 2 (RT excluded), and lane 3 (RNA excluded) (FIG. 2a). […] RT-PCR generated bands were confirmed to encode the FPR or FPRL1 by sequence analysis. FPR protein expression in platelets was shown by immunoblotting with FPR specific antibody.
Total RNA was isolated using Ultraspec RNA isolation system (Biotecx Laboratories Inc., Houston Tes.), according to the manufacturer's protocol. To confirm purity of the product RNA, absorption ratios at 260/280 nm were determined to be […] for all samples. The samples were adjusted to 200 ng/μl for reverse transcription and PCR according to absorption at 260 nm. Total RNA was reversed-transcribed using Thermoscript RT (GibcoBRL, Gaithersburg, Md.). Conditions for PCR amplification of the resulting first-strand DNA template involved preheating a mixture of Taq DNA polymerase (5 U/ml) (GibcoBRL), primers, cDNA, and PCR components to 95° C. for 5 min before amplification. […]

human platelets [1] = assay: Intracellular free calcium in fura-2 loaded platelets; assay type: cell-based; conditions: for calcium signal: thrombin-activated as well as non-activated platelets, 1 U thrombin, 10^−6 M peptide
Description: Washed platelets were activated with either 0 U or 1 U thrombin (Sigma) for 10 min at 37° C. Fura-2 loaded platelets were prepared by incubating the platelets, for 45 min with fura-2 acetoxymethyl ester at 37° C. The dye-loaded platelets were washed and resuspended in calcium-free HBSS standard solution. The cells were then transferred into quartz cuvettes (10^9 cells in 2 ml), which were placed in a model MS-III spectrofluorometer (Photon Technologies, Inc.; South Brunswick, N.J.) and continuously stirred at 37° C. Stimulants were added in a 2 μl volume at indicated time points. The ratios of fluorescence at excitation wavelengths 340 and 380 nm and emission wavelength at 510 nm were calculated using FeliX fluorescence analysis software (Photon Technology Instruments; London, Ontario, Canada). Representative traces from at least six independent experiments are shown.

human platelets [2] = assay: Platelet chemotaxis by transwell migration (ChemoTx microplate); assay type: cell-based; conditions: for chemotaxis of thrombin-activated platelets toward peptide: 10^−6 and 10^−7 M peptide, 10 U thrombin, P<0.001
Description: The chemotactic activity of activated and non-activated platelets in response to different concentrations of fMLF by transwell migration (FIG. 4a) was determined. […] Both thrombin-activated and non-activated platelet migration followed a concentration-response curve that was greatest at 10^−6 M fMLF (27.2±12) in the thrombin-activated platelets and 10^−7 M fMLF (11.5±6.5) in the non-activated platelets (FIG. 4a). […] Next the dependence of platelet chemotaxis on the presence of a Formyl group on the peptide was tested. […] Non-activated platelets behaved similarly. Thus, the presence of a Formylgroup was essential for FPR binding, calcium mobilization and platelet chemotaxis.
Platelet migration was assessed using a 96-well ChemoTx® microplate (Neuro Probe, Gaithersburg Md.). For all chemotaxis experiments, different concentrations of stimulants were placed in the bottom wells of the microplate and the filter was positioned (2 μm pore size). The cell suspension was seeded onto the top of the filter (30 μl) and the microplates were incubated for 2 hrs at 37° C. For all chemokinesis experiments, different concentrations of stimulants were placed in the bottom wells of the microplate and the filter was positioned. The cell suspension containing different concentrations of stimulants were placed on the filter (30 μl) in a gradient fashion. After incubation, the lid was removed and the filter was gently wiped with a cell harvester and carefully flushed with media to remove any of the non-migrated cells. The filter was then carefully removed and the migrated cells were counted by light microscopy. Results are expressed as the mean value (±SD) of total migrated cells, in triplicate samples, and are taken from five experiments independent.
Chemotactic responses were distinguished from chemokinetic responses by placing increasing concentrations of fMLF in the upper and lower chambers of the transwell plates (Table 1).
There was no enhanced cell migration when higher concentrations of fMLF were present in the upper wells or with equal concentrations of fMLF in both the upper and lower wells, as would be seen with chemokinesis.
Different concentrations of fMLF were placed in the upper and/or lower wells of the chemotaxis plate; platelets at 10^6 cells/ml were placed on the upper filter. After a 2-hour incubation, the non-migrated cells were removed and the cells that migrated across the filter were counted. The results are expressed as the mean value (±SD) of the migrated cells in at least six separate experiments (n=24). Grey shading indicates wells containing a greater concentration of fMLF in the lower well compared to the upper well. Platelet migration in transwells maintaining a gradient of fMLF between chambers were compared with wells containing equimolar concentrations of fMLF in both chambers (p<0.002, Student's t-test)

[3] = target: T1, N-formyl peptide receptors on human platelets (Homo sapiens, UniProt P21462); assay: Confocal microscopy of fluorescein-conjugated peptide binding to human platelets; conditions: 10^−6 M peptide; thrombin-activated platelets
T1 construct: Platelet-rich plasma was prepared from whole blood by differential centrifugation; endogenous in cells
T1 sequence (P21462 1-350): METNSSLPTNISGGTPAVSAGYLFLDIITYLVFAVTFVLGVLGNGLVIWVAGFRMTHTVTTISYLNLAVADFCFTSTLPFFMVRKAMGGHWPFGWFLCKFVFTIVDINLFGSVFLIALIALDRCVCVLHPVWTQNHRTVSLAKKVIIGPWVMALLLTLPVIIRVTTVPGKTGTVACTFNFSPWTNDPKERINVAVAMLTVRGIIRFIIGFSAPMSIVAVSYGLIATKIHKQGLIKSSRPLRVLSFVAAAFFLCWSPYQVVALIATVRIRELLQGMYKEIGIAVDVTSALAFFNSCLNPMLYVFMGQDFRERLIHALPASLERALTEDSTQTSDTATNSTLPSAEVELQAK
Description: (§1) To test whether human platelets express N-formyl peptide receptors, the binding of identical fluorescein-conjugated peptides to human platelets was evaluated by flow cytometry, where one contained a formyl group N-formyl-Nle-Leu-Phe-Nle-Tyr-Lys (fNLFNYK-fl) (SEQ ID NO:1), and the other without a formyl group Nle-Leu-Phe-Nle-Tyr-Lys (NLFNYK-fl) (SEQ ID NO:2). […] However, with permeabilization of non-activated platelets, fluorescein staining of granule-like particles was detected within the interior of platelets (FIG. 1d). […] Differential interference contrast (DIC) imaging (FIG. 1g insert) confirmed the presence of platelets.
Platelet-rich plasma was prepared as mentioned above. Washed platelets were activated with either 1 or 10 U thrombin (Sigma) for 10 min at 37° C. The platelets were washed two times and fixed with 4% paraformaldehyde for 20 min at 4° C. The platelets were then washed and permeablized with 100% methanol for 15 min at 4° C. […] The platelets were washed two times, spun onto cover slips, and mounted with ProLong® Antifade Kit (Molecular Probes). Confocal images were collected on a Leica TCS-NT/SP confocal microscope (Leica Microsystems, Exton, Pa.) using a 100-x oil emersion objective NA 1.4, zoom 2. Representative images from three independent experiments are shown (FIG. 2).

[4] = target: T1, N-formyl peptide receptors on human platelets; assay: Flow cytometry of fluorescein-conjugated peptide binding to human platelets; conditions: 10^−7 M peptide; platelets treated with 0, 0.001, 0.1 or 10 U thrombin
Description: as §1
Platelet-rich plasma was prepared from whole blood by differential centrifugation at 800×g for 5 min at 22° C. The top two-thirds of the platelet-rich plasma was removed and washed in PBS containing 1% fetal bovine serum. Washed platelets were activated with 0, 0.001, 0.1 or 10 U thrombin (Sigma, St. Louis, Mo.) for 10 min at 37° C. The platelets were then washed and incubated with 10^−7 M fluorescein conjugated N-formyl peptide; fNLFNYK-fl (SEQ ID NO:1; Molecular Probes, Eugene, Oreg.) or 10^−7 M fluorescein conjugated non-N-formylated peptide; NLFNYK-fl (SEQ ID NO:2; New England Peptide, Fitchburg, Mass.) for 30 min at room temperature. […] Samples were analyzed on a Becton Dickinson (Franklin Lakes, N.J.) FASCcalibur/CELLQuest system. […]

Hep-2 cells = assay: Induction of apoptosis in Hep-2 cells, scored by H-33342/SYTOX staining; assay type: cell-based; conditions: 1 μM for 5 hours
Description: Hep-2-cells were grown in DMEM medium supplemented with 10% FCS. Before each experiment, the cells were washed and the media was replaced with serum-free DMEM. After adaptation to this medium, cells were exposed to repeated freeze/thaw or UV radiation (1000J) in a UV Stratalinker UV oven (Stratagene) to induce necrosis. To induce apoptosis, cells were treated with 1 μM staurosporine (STS) for 5 hours. After the treatments, the cells were placed into a tissue culture incubator overnight. The supernatant was collected and used for experimentation and the cells were stained with a mixture of the membrane permeant dye H-33342 (500 ng/ml) and the membrane impermeant dye SYTOX (500 nM) (Molecular Probes; Eugene, Oreg.). Necrotic (damaged plasma membrane; non-condensed nuclei) and apoptotic (intact plasma membrane; characteristically condensed or fragmented nuclei) cells were scored. Necrotic cells after UV radiation=84%. Apoptotic cells after STS treatment=80%.

Compound: CCCCCCCCCCCCCC(=O)O[C@@H]1[C@@H](C)[C@@]2(O)[C@@H](C=C(CO)C[C@]3(O)C(=O)C(C)=C[C@@H]23)[C@@H]2C(C)(C)[C@]12OC(C)=O [PMA, phorbol 12-myristate 13-acetate]
FPR and FPRL-1 mRNA expression after induced megakaryocyte differentiation (MEG-01 cells): transactivation of the genes encoding both the FPR and FPRL-1

Compound: N-formyl-methionine-leucine-phenalanine [fMLF]
calcium signal after pretreatment with thrombin (human platelets [1]; pretreatment with thrombin (1 U), then fMLF stimulation): greater fluorescent signal
calcium signal (human platelets [1]): induced a calcium signal
checkerboard analysis: chemotaxis versus chemokinesis (human platelets [2]; fMLF in upper and/or lower wells, 2-hour incubation): directed migration and not chemokinesis
platelet migration, mean value (±SD) of migrated cells (human platelets [2]; non-activated platelets, 10^−7 M fMLF (greatest response)): 11.5±6.5
platelet migration, mean value (±SD) of migrated cells (human platelets [2]; thrombin-activated platelets, 10^−6 M fMLF (greatest response)): 27.2±12

Compound: For-[Nle]LF[Nle]YK [fNLFNYK-fl]
binding of fluorescein-conjugated peptide to platelets by confocal microscopy [3]: upregulation of external N-formyl peptide binding with platelet activation
binding of fluorescein-conjugated peptide to platelets by flow cytometry [4]: increased binding with increased thrombin activation
chemotaxis of thrombin-activated platelets toward peptide (human platelets [2]): significantly more migration

Compound: CN[C@@H]1C[C@H]2O[C@@](C)([C@@H]1OC)n1c3ccccc3c3c4c(c5c6ccccc6n2c5c31)C(=O)NC4 [STS, staurosporine]
apoptotic cells after treatment (Hep-2 cells): 80%
platelet calcium flux response to thrombin after incubation with STS (human platelets [1]; platelets incubated with STS directly): capable of subsequent calcium flux responses to thrombin

Compound: MLF: the non formyl peptide, MLF
calcium signal (human platelets [1]): failed to elicit a calcium signal

Compound: thrombin
calcium signal (human platelets [1]): induced a calcium signal

binding of fluorescein-conjugated peptide to platelets by confocal microscopy [3]: no binding
Compound: Nle-Leu-Phe-Nle-Tyr-Lys ([Nle]LF[Nle]YK-fluorescein) [NLFNYK-fl, fluorescein conjugated non-N-formylated peptide (New England Peptide)]
binding of fluorescein-conjugated peptide to platelets by flow cytometry [4]: non-specific and did not increase with thrombin activation
chemotaxis of thrombin-activated platelets toward peptide (human platelets [2]): failed to induce significant chemotaxis

Source: patent publication US20060171944A1, “N-formyl peptide receptor mediation of platelet chemotaxis toward injured cells and activation of immune response” (priority 2002, published 2006)
